# In patent US20160304957A1, “TREATMENT AND MODULATION OF GENE EXPRESSION AND SKIN AGING” (DSM NUTRITIONAL PRODUCTS LTD., priority 2006, published 2016):
# Test system: HaCaT human keratinocytes
# Test: Affymetrix GeneChip microarray, transcriptional response to β-carotene and/or UVA
# Format: cell-based
# Conditions: UVA and β-carotene 1.5 μM
# Protocol: The cell culture experiments were carried out as described. Briefly, a subclone of passage 65 HaCaT keratinocytes, selected for differentiation capacity, was used at passages 16 to 23 after subcloning. 2×10^5 cells were seeded per 60 millimeter dish. Starting the following day, the cells were pretreated for 2 days with β-carotene at 1.5 μM, a typical concentration in human plasma after moderate dietary supplementation)
# β-carotene-containing medium was prepared as follows. Fresh all-E-β-carotene (DSM Nutritional Products, Kaiseraugst, Switzerland) stock solution in THF (containing 0.025% BHT; Fluka Chemie A G, Switzerland) was diluted 1:2 with ethanol and added to cell culture medium to a final concentration of 1.5 μM β-carotene. The solvent concentration in the medium was 0.5% for all treatments. β-carotene-containing medium was prepared fresh for the daily medium changes.
# On day 3 of the experiment, the cells were irradiated with a Hönle sun lamp Sol 500 (270 kJ/m^2; Dr. Hönle, Germany).
# Five independent, factorially designed cell irradiation experiments were analyzed by microarray hybridization. For each experiment, one chip was hybridized per treatment condition. GeneChip® analysis was done as described in [132], which is incorporated by reference, as if recited in full herein. Gene regulation by β-carotene and/or UVA was calculated relative to placebo.
# Changes in gene expression were included in further analysis only if the change factor was […], and if unpaired t-tests yielded p values≦0.05. Upregulations by a […] are labeled bold, downregulations by a change factor of […] are labeled bold italics. (Table 1) To identify the pathways affected by the treatments functional information on the genes was retrieved from public literature databases.
smiles,measurement,value
"CC1=C(/C=C/C(C)=C/C=C/C(C)=C/C=C/C=C(C)/C=C/C=C(C)/C=C/C2=C(C)CCCC2(C)C)C(C)(C)CCC1 [β-carotene, All-E-β-carotene]",5-aminolevulinate synthase (Y00451) change factor,0.41
same,AAC11 (U83857) change factor,−0.05
same,AP-2α (M36711) change factor,−0.67
same,ATF4; activating transcription factor 4 (AL022312) change factor,0.96
same,BAXγ (L22475) change factor,−0.34
same,BAXδ (U19599) change factor,0.67
same,BMP2a; bone morphogenetic protein 2a (bmp-2a) (M22489) change factor,0.16
same,BPAG1; bullous pemphigoid antigen (M69225) change factor,0.12
same,BUB1; mitotic checkpoint kinase (AF053305) change factor,−0.81
same,C-FOS (V01512) change factor,2.49
same,"C-FOS (V01512, second entry) change factor",1.36
same,C-JUN (J04111) change factor,0.93
same,C/EBPβ; NF-IL6 (X52560) change factor,0.83
same,C/EBPγ (U20240) change factor,0.71
same,C/EBPδ; NF-IL6-β (M83667) change factor,0.31
same,CDK activating kinase (X77743) change factor,0.57
same,CDK-inhibitor p57KIP2 (KIP2) mrna (U22398) change factor,0.79
same,CENP-A; centromere protein-A (U14518) change factor,−1.82
same,CENP-E; centromere protein-E (Z15005) change factor,−1.44
same,CENP-F; mitosin (U30872) change factor,−1.22
same,CEP110; centriole associated protein (AF083322) change factor,−4.18
same,CIP2; CDKN3 (L25876) change factor,−0.81
same,"CLARP; CFLAR, alternatively spliced (AF005775) change factor",−0.62
same,COUP-TF II; ARP1; apoA1 regulatory protein (M64497) change factor,0.81
same,"COX-2, cyclooxygenase-2 (U04636) change factor",0.2
same,CRADD; death domain containing protein (U84388) change factor,−0.87
same,DKK-1; dickkopf-1 (AB020315) change factor,1.4
same,DNA ligase III (X84740) change factor,−0.71
same,DNA polymerase α-subunit (X06745) change factor,−0.63
same,DNA primase (subunit p58) (X74331) change factor,−0.41
same,"DNA-PK, catalytic subunit (U47077) change factor",−1.06
same,DSC2; desmocollin type 2a and 2b (X56807) change factor,−0.29
same,DUSP5 (U15932) change factor,2.84
same,DUSP7 (X93921) change factor,0.99
same,EGFR; precursor of epidermal growth factor receptor (X00588) change factor,−0.69
same,ENDOGL-2 (AB020735) change factor,0.41
same,ERBB3 precursor; similar to (H06628) change factor,−0.78
same,ERCC5; excision repair protein (L20046) change factor,−0.95
same,ERF-2 (X78992) change factor,0.99
same,FGFR2; FGF receptor 2 (M87770) change factor,−0.48
same,FGFR3; FGF receptor (M64347) change factor,−2.58
same,FRA-1 (X16707) change factor,0.71
same,FRA-2 (X16706) change factor,−0.13
same,GADD34 (U83981) change factor,2.62
same,GADD153 (S62138) change factor,7.64
same,GDF-1; growth/differentiation factor 1 (gdf-1) (M62302) change factor,−0.43
same,GEM (U10550) change factor,3.91
same,HB-EGF; heparin-binding egf-like growth factor (M60278) change factor,3.32
same,HER3; epidermal growth factor receptor (her3) (M34309) change factor,−1.12
same,"HER3; epidermal growth factor receptor (her3) (M34309, second entry) change factor",−1.56
same,HM74; PAR1-related (D10923) change factor,−0.55
same,HOXA7 (AJj005814) change factor,−0.52
same,HOXC6 (S82986) change factor,−0.82
same,HOXD4 (X59373) change factor,−0.76
same,ID1 (X77956) change factor,−2.43
same,"ID1 (X77956, second entry) change factor",−4.7
same,ID3; HEIR1 (AL021154) change factor,−4.35
same,ID-2H (D13891) change factor,−2.68
same,ID-4 (AL022726) change factor,−0.49
same,IEX-1 (S81914) change factor,0.91
same,IFIT1; IFI56 (M24594) change factor,−0.61
same,"IFIT1; IFI56 (M24594, second entry) change factor",−0.71
same,IFIT2; ISG-54K (M14660) change factor,1.17
same,"IFIT2; ISG-54K (M14660, second entry) change factor",0.58
same,IFIT4; IFI60; cig5; RIGG (AF026941) change factor,5.46
same,IGF-BP 3; insulin-like growth factor-binding protein-3 gene (M35878) change factor,1.64
same,"IGF-BP 3; insulin-like growth factor-binding protein-3 gene (M35878, second entry) change factor",1.73
same,IL6; Interleukin 6; IFNβα2a (X04430) change factor,2.29
same,IL18; IGIF (IFNγ inducing factor) (D49950) change factor,−0.18
same,ILK; integrin-linked kinase (U40282) change factor,−0.51
same,IRF-1; interferon regulatory factor 1 (L05072) change factor,0.29
same,IRF-7b; interferon regulatory factor 7b (U53831) change factor,0.49
same,IRF-9; p48; ISGF3γ (M97935) change factor,−0.67
same,JUNB (M29039) change factor,−0.72
same,JUNB (X51345) change factor,−0.7
same,JUND (X56681) change factor,3.2
same,"JUND (X56681, second entry) change factor",1.83
same,"JUND (X56681, third entry) change factor",1.66
same,K-RAS (M54968) change factor,−0.64
same,KINESIN-LIKE 2; HSET (AL021366) change factor,−0.72
same,KINESIN-LIKE 2; HSET (D14678) change factor,−0.72
same,"KINESIN-LIKE 2; HSET (D14678, second entry) change factor",−1.15
same,KINESIN-LIKE 5; KNSL5; MKLP-1; mitotic kinesin-like protein-1 (X67155) change factor,−1.04
same,KINESIN-LIKE 6; KNSL6; MCAK; mitotic centromere-associated kinesin (U63743) change factor,−1.61
same,KINESIN_LIKE 1; KNSL1; HKSP; EG5 (U37426) change factor,−0.92
same,KLF4; EZF (epithelial Zn finger) (U70663) change factor,3.46
same,KRS-2; stress responsive serine/threonine protein kinase (U60207) change factor,−0.35
same,KU (p70/p80) (M30938) change factor,−0.64
same,LIM kinase 2 (limk-2) (D45906) change factor,−0.66
same,Lekti (AJ228139) change factor,0.75
same,MAD3L; mitotic checkpoint kinase (AF053306) change factor,−2.45
same,MAF-F (AL021977) change factor,1.71
same,MAP kinase phosphatase (mkp-2) (U48807) change factor,1.12
same,MAPK9; JNK2 (U09759) change factor,−0.57
same,MAPK14; p38; csaids binding protein (csbp1) (L35263) change factor,−0.53
same,MAPKK3b; MKK3b (D87116) change factor,0.62
same,MAPKK MEK5b (U71087) change factor,−0.7
same,MAPKKK5; ASK1 (U67156) change factor,−4.7
same,MEIS2 (AF017418) change factor,−1.3
same,MMP10 (X07820) change factor,2.2
same,MMP-1 (M13509) change factor,−0.22
same,MMP-3 (X05232) change factor,0.93
same,N-RAS (X02751) change factor,−0.01
